Reference: the NIST ThermoML archive (doi:10.1016/j.tca.2010.09.004)

Assay: xn = mol fraction of the nth substance listed
Settings: 101 kPa, Liquid; for speed of sound: Sing-around technique in a fixed-path interferometer; for mass density: Vibrating tube method

CCCCNCCCC [dibutylamine] + CCC(C)=O
Settings	mass density [kg/m3]	speed of sound [m/s]
293.15 K, x2 = 0.0568	760.739	1258.2
293.15 K, x2 = 0.1152	762.014	1255
293.15 K, x2 = 0.1488	762.814	1252.9
293.15 K, x2 = 0.1968	764.024	1250.3
293.15 K, x2 = 0.2539	765.57	1247.2
293.15 K, x2 = 0.3056	767.093	1244.4
293.15 K, x2 = 0.3564	768.675	1241.6
293.15 K, x2 = 0.4105	770.501	1238.7
293.15 K, x2 = 0.4545	772.103	1236.4
293.15 K, x2 = 0.5005	773.872	1234
293.15 K, x2 = 0.5553	776.145	1231.1
293.15 K, x2 = 0.6022	778.277	1228.9
293.15 K, x2 = 0.6554	780.87	1225.8
293.15 K, x2 = 0.7036	783.444	1223.3
293.15 K, x2 = 0.7554	786.435	1220.8
293.15 K, x2 = 0.8022	789.404	1218.7
293.15 K, x2 = 0.8598	793.411	1216.3
293.15 K, x2 = 0.9001	796.544	1215
293.15 K, x2 = 0.9513	800.881	1213.5
298.15 K, x2 = 0.0681	756.775	1237.3
298.15 K, x2 = 0.1038	757.539	1235.3
298.15 K, x2 = 0.1625	758.95	1232
298.15 K, x2 = 0.2034	759.972	1229.9
298.15 K, x2 = 0.2603	761.475	1226.7
298.15 K, x2 = 0.3112	762.929	1223.8
298.15 K, x2 = 0.3523	764.175	1221.6
298.15 K, x2 = 0.3937	765.506	1219.4
298.15 K, x2 = 0.442	767.105	1216.6
298.15 K, x2 = 0.5018	769.396	1213.3
298.15 K, x2 = 0.5455	771.147	1211
298.15 K, x2 = 0.6036	773.698	1207.7
298.15 K, x2 = 0.6514	775.963	1205.2
298.15 K, x2 = 0.7003	778.472	1202.7
298.15 K, x2 = 0.7473	781.05	1200.3
298.15 K, x2 = 0.7978	784.142	1197.9
298.15 K, x2 = 0.8456	787.356	1195.9
298.15 K, x2 = 0.9022	791.581	1193.7
298.15 K, x2 = 0.9482	795.385	1192.3
303.15 K, x2 = 0.0621	752.548	1218.9
303.15 K, x2 = 0.1098	753.539	1216.1
303.15 K, x2 = 0.1666	754.759	1212.6
303.15 K, x2 = 0.2074	755.736	1210.3
303.15 K, x2 = 0.2593	757.08	1207.2
303.15 K, x2 = 0.309	758.454	1204.7
303.15 K, x2 = 0.3551	759.79	1202
303.15 K, x2 = 0.4045	761.368	1199.3
303.15 K, x2 = 0.4566	763.133	1196.4
303.15 K, x2 = 0.4957	764.551	1194.1
303.15 K, x2 = 0.5402	766.282	1191.6
303.15 K, x2 = 0.6005	768.842	1188.2
303.15 K, x2 = 0.6493	771.091	1185.6
303.15 K, x2 = 0.7004	773.646	1182.9
303.15 K, x2 = 0.7486	776.288	1180.5
303.15 K, x2 = 0.8005	779.398	1177.9
303.15 K, x2 = 0.8456	782.362	1175.9
303.15 K, x2 = 0.899	786.254	1173.7
303.15 K, x2 = 0.953	790.578	1172
